Results from US20210300940A1 (Merck Patent GmbH, priority 2018, published 2021).
Where a name gives a salt, the structure may show the parent alone.

Tests used:
[1] = biological target: T1, TLR8 (Homo sapiens, UniProt Q9NR97); assay: HEK/293 TLR8 Cell Assay; assay type: cell-based; conditions: HEK cells, R848 agonist 30 uM final concentration, Steady-Glo readout; read-out: TLR8 potency
T1 construct: expressed in transfected cells; host or cells: HEK/293 reporter cells (NF-kB luciferase)
T1 sequence (Q9NR97 27-1041): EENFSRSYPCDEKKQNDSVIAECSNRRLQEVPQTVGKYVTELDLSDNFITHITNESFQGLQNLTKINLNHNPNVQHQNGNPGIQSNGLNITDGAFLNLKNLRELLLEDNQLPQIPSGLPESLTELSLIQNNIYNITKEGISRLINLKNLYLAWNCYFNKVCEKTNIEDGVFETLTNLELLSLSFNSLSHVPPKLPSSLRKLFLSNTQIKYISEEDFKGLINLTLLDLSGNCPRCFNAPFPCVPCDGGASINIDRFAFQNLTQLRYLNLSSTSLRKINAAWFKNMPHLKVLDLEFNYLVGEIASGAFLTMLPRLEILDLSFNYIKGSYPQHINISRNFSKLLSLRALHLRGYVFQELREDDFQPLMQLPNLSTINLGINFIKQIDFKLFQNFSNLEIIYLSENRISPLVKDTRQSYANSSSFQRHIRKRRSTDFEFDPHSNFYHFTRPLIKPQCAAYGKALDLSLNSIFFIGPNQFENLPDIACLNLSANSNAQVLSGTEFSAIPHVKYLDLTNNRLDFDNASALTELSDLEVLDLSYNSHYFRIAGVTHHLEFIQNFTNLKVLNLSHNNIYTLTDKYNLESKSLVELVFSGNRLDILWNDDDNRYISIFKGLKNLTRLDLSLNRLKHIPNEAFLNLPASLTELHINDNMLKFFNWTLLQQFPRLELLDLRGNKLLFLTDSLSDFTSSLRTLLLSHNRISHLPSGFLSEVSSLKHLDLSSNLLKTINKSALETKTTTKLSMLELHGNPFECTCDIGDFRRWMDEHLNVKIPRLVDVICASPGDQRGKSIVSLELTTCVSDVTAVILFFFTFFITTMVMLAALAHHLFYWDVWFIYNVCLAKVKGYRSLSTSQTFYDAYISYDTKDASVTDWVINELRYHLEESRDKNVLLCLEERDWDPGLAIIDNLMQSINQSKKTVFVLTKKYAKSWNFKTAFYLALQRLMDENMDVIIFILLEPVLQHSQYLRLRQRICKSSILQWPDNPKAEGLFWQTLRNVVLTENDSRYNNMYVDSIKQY

[2] = biological target: T2, TLR7 (Homo sapiens, UniProt Q9NYK1); assay: HEK/293 TLR7 Cell Assay; assay type: cell-based; conditions: TLR7/NFKb HEK cells, R848 agonist 10 uM final concentration, Steady-Glo readout; read-out: TLR7 potency
T2 construct: expressed in transfected cells; host or cells: HEK/293 cells carrying TLR7 and an NF-kB luciferase reporter
T2 sequence (Q9NYK1 27-1049): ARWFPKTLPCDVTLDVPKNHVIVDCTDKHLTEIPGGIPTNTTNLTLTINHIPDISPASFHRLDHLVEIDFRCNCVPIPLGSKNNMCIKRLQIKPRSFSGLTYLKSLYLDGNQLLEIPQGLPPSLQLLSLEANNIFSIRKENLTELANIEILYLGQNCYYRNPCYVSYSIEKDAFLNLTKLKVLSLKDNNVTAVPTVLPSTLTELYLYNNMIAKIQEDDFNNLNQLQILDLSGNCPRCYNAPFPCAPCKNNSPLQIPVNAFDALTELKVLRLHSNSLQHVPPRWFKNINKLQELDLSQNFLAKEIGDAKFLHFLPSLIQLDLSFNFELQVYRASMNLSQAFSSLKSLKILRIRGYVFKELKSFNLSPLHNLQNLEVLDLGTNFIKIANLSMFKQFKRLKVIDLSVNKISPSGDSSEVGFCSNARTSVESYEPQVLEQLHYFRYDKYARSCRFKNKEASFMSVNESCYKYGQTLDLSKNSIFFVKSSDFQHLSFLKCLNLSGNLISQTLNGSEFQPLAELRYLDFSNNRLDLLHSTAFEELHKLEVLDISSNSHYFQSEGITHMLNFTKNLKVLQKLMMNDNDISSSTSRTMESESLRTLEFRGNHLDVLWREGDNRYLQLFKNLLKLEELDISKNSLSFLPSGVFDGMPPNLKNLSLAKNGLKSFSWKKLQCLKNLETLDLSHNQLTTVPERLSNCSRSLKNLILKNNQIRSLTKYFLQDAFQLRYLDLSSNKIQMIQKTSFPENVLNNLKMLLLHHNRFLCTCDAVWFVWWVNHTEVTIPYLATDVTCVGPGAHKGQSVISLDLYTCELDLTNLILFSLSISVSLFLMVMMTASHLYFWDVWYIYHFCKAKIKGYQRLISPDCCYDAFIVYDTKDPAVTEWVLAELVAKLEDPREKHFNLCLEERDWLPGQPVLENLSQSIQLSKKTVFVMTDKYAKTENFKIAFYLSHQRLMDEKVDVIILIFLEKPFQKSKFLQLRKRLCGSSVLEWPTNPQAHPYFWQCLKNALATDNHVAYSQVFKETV
Procedure, shortened: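 TLR7/NF-κB reporter HEK293 cells, 5000/well, cultured 24 h, then preincubated 30 min with compound before R848 agonist (10 uM final). After 5 h stimulation, Steady-Glo luciferase luminescence read.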

| SMILES | IC50 [1] | IC50 [2] |
| --- | --- | --- |
| C[C@@H]1CN(c2ccc(C#N)c3nccnc23)C[C@H](C(=O)NCC2(F)CCN(C)CC2)O1 [Example 253, (2R,6R)-4-(8-Cyano-quinoxalin-5-yl)-6-methyl-morpholine-2-carboxylic acid (4-fluoro-1-methyl-piperidin-4-ylmethyl)-amide] | < 0.075 µM | < 0.075 µM |
| N#Cc1ccc(N2C[C@H](CN3CCC4(CC3)CC(=O)N4)O[C@H](C(F)(F)F)C2)c2nccnc12 (single isomer, unassigned) [Example 363] | > 0.15 µM | < 0.075 µM |
| C[C@@H]1CN(c2ccc(C#N)c3nccnc23)C[C@H](C(=O)NCC2(F)CCNCC2)O1 [Example 290, (2R,6R)-4-(8-Cyano-quinoxalin-5-yl)-6-methyl-morpholine-2-carboxylic acid (4-fluoro-piperidin-4-ylmethyl)-amide] | < 0.075 µM | < 0.075 µM |
| C[C@@H]1CN(c2cnc(C(F)(F)F)c3ncccc23)C[C@H](CNC[C@@H]2CN(C)CCO2)O1 (single isomer, unassigned) [Example 386] | < 0.075 µM | > 0.15 µM |
| Cc1c(F)cc(N2C[C@H](NC(=O)CC3C4CC3CN(C)C4)C[C@H](C(F)(F)F)C2)c2cccnc12 (stereo partly drawn) [Example 113, N-[(3R,5S)-1-(7-Fluoro-8-methyl-quinolin-5-yl)-5-trifluoromethyl-piperidin-3-yl]-2-(3-methyl-3-aza-bicyclo[3.1.1]hept-6-yl)-acetamide] | < 0.075 µM | 0.075 to 0.15 µM |
| C[C@H]1C[C@@H](NC(=O)CN2CCN(C)CC2)CN(c2ccc(C#N)c3ncncc23)C1 [Example 89, N-[(3R,5S)-1-(8-cyanoquinazolin-5-yl)-5-methylpiperidin-3-yl]-2-(4-methylpiperazin-1-yl)acetamide] | > 0.15 µM | < 0.075 µM |
| C[C@@H]1CN(c2ccc(C#N)c3nccnc23)C[C@H](C(=O)NC2CCN(CC3CC3)C2)O1 (stereo partly drawn) [Example 241, (2R,6R)-4-(8-Cyano-quinoxalin-5-yl)-6-methyl-morpholine-2-carboxylic acid (1-cyclopropylmethyl-pyrrolidin-3-yl)-amide] | < 0.075 µM | < 0.075 µM |
| C[C@@H]1CN(c2ccc(C(F)(F)F)c3ncccc23)C[C@H](CN2CCN(C)CC2)O1 [Example 330, 5-[(2R,6S)-2-Methyl-6-(4-methyl-piperazin-1-ylmethyl)-morpholin-4-yl]-8-trifluoromethyl-quinoline] | < 0.075 µM | < 0.075 µM |
| C[C@@H]1CN(c2ccc(C#N)c3nccnc23)C[C@H](C(=O)N2CC(N3CC(C)(O)C3)C2)O1 [Example 235, 8-[(2R,6R)-2-(3-Hydroxy-3-methyl-[1,3′]biazetidinyl-1′-carbonyl)-6-methyl-morpholin-4-yl]-quinoxaline-5-carbonitrile] | 0.075 to 0.15 µM | 0.075 to 0.15 µM |
| CN1CC[C@@](F)(CNC(=O)[C@@H]2CN(c3cnc(C#N)c4ncccc34)C[C@H](C(F)(F)F)O2)C1 (single isomer, unassigned) [Example 349] | 0.075 to 0.15 µM | 0.075 to 0.15 µM |
| C[C@H]1C[C@@H](NC(=O)CC2(O)CCN(C)CC2)CN(c2ccc(C(F)(F)F)c3nccnc23)C1 [Example 80, 2-(4-hydroxy-1-methylpiperidin-4-yl)-N-[(3R,5S)-5-methyl-1-[8-(trifluoromethyl)quinoxalin-5-yl]piperidin-3-yl]acetamide hydrochloride] | < 0.075 µM | < 0.075 µM |
| C[C@H]1C[C@@H](NC(=O)[C@@H]2COCCN2)CN(c2ccc(C#N)c3nccnc23)C1 [Example 208, (3S)—N-[(3R,5S)-1-(8-cyanoquinoxalin-5-yl)-5-methylpiperidin-3-yl]morpholine-3-carboxamide] | < 0.075 µM | 0.075 to 0.15 µM |
| O=C(CC1(F)CCNCC1)N[C@@H]1C[C@H](C(F)(F)F)CN(c2ccc(C(F)(F)F)c3ncccc23)C1 [Example 117, 2-(4-fluoropiperidin-4-yl)-N-[(3R,5S)-5-(trifluoromethyl)-1-[8-(trifluoromethyl)quinolin-5-yl]piperidin-3-yl]acetamide] | < 0.075 µM | < 0.075 µM |
| C[C@@H]1CN(c2ccc(C(F)(F)F)c3ncccc23)C[C@H](CN2CCC(C(C)(C)O)C2)O1 (stereo partly drawn) [Example 331, 2-{1-[(2S,6R)-6-Methyl-4-(8-trifluoromethyl-quinolin-5-yl)-morpholin-2-ylmethyl]-pyrrolidin-3-yl}-propan-2-ol] | 0.075 to 0.15 µM | < 0.075 µM |
| C[C@@H]1CN(c2cnc(C#N)c3ncccc23)C[C@H](C(=O)NCC2CCCN2C)O1 (stereo partly drawn) [Example 273, (2R,6R)-4-(8-Cyano-[1,7]naphthyridin-5-yl)-6-methyl-morpholine-2-carboxylic acid (1-methyl-pyrrolidin-2-ylmethyl)-amide] | < 0.075 µM | < 0.075 µM |
| C[C@@H]1CN(c2ccc(C#N)c3ncncc23)C[C@H](CN2CCN(C)CC2)O1 [Example 224, 5-[(2R,6S)-2-Methyl-6-(4-methyl-piperazin-1-ylmethyl)-morpholin-4-yl]-quinazoline-8-carbonitrile] | > 0.15 µM | < 0.075 µM |
| N#Cc1ccc(N2C[C@H](NC(=O)CC3(N)CC3)C[C@H](C(F)(F)F)C2)c2nccnc12 [Example 119, 2-(1-aminocyclopropyl)-N-[(3R,5S)-1-(8-cyanoquinoxalin-5-yl)-5-(trifluoromethyl)piperidin-3-yl]acetamide] | < 0.075 µM | 0.075 to 0.15 µM |
| C[C@H]1C[C@@H](NCCC2CS(=O)(=O)C2)CN(c2ccc(C#N)c3nccnc23)C1 [Example 43, 8-{(3R,5S)-3-[2-(1,1-Dioxo-1lambda6-thietan-3-yl)-ethylamino]-5-methyl-piperidin-1-yl}-quinoxaline-5-carbonitrile] | < 0.075 µM | < 0.075 µM |
| C[C@@H]1CN(c2ccc(C#N)c3nccnc23)C[C@H](C(=O)NC[C@H]2CN(C)CCO2)O1 (single isomer, unassigned) [Example 324] | < 0.075 µM | < 0.075 µM |
| C[C@@H]1CN(c2ccc(C#N)c3ncncc23)C[C@H](CNC(=O)C2(F)CCNC2)O1 (stereo partly drawn) [Example 343, N-{[(2S,6R)-4-(8-cyanoquinazolin-5-yl)-6-methylmorpholin-2-yl]methyl}-3-fluoropyrrolidine-3-carboxamide] | < 0.075 µM | < 0.075 µM |
| CN(C)CCNC(=O)N[C@@H]1C[C@H](C(F)(F)F)CN(c2ccc(C#N)c3nccnc23)C1 [Example 139, 1-[(3R,5S)-1-(8-cyanoquinoxalin-5-yl)-5-(trifluoromethyl)piperidin-3-yl]-3-[2-(dimethylamino)ethyl]urea] | 0.075 to 0.15 µM | 0.075 to 0.15 µM |
